Laboratory results: ChEMBL document CHEMBL3616471, “Synthesis and in vitro antitumor evaluation of betulin acid ester derivatives as novel apoptosis inducers” (Eur J Med Chem, 2015)
pIC50: −log10 of the molar value. Calls of active or inactive are those of the source. No cut-off for these calls is given here.

What was measured:
[1] = tested on: MGC-803; assay: Induction of apoptosis in human MGC803 cells assessed as apoptosis ratio at 10 uM using annexin-V and propidium iodide staining by flow cytometry; format: functional, cell-based; details: TDE = time-dependent effect
[2] = tested on: MGC-803; assay: Induction of apoptosis in human MGC803 cells assessed as apoptotic bodies at 5 uM after 12 to 48 hrs using Hoechst 33258 staining by fluorescence microscopic analysis; format: functional, cell-based
[3] = tested on: MCF7; assay: Cytotoxicity against human MCF7 cells after 72 hrs by MTT assay; format: functional, cell-based
[4] = tested on: MGC-803; assay: Cytotoxicity against human MGC803 cells after 72 hrs by MTT assay; format: functional, cell-based
[5] = tested on: A-375; assay: Ratio of betulin IC50 to compound IC50 for human A375 cells; format: functional
[6] = tested on: A-375; assay: Selectivity index, ratio of IC50 for mouse NIH/3T3 cells to IC50 for human A375 cells; format: functional
[7] = tested on: MGC-803; assay: Induction of apoptosis in human MGC803 cells assessed as cell budding at 5 uM after 12 to 48 hrs using acridine orange/ethidium bromide staining by fluorescence microscopic analysis; format: functional, cell-based
[8] = tested on: MCF7; assay: Ratio of betulin IC50 to compound IC50 for human MCF7 cells; format: functional
[9] = tested on: MGC-803; assay: Induction of apoptosis in human MGC803 cells assessed as apoptosis ratio at 10 uM after 36 hrs using annexin-V and propidium iodide staining by flow cytometry; format: functional
[10] = tested on: A-375; assay: Cytotoxicity against human A375 cells after 72 hrs by MTT assay; format: functional, cell-based
[11] = tested on: PC-3; assay: Selectivity index, ratio of IC50 for mouse NIH/3T3 cells to IC50 for human PC3 cells; format: functional
[12] = tested on: MGC-803; assay: Induction of apoptosis in human MGC803 cells assessed as formation of nicks in DNA at 5 uM after 48 hrs by TUNNEL assay; format: functional, cell-based
[13] = tested on: MGC-803; assay: Ratio of betulin IC50 to compound IC50 for human MGC803 cells; format: functional
[14] = Cytotoxicity against mouse NIH/3T3 cells after 72 hrs by MTT assay; format: cell-based; details: nih3t3, 72 h
[15] = tested on: MCF7; assay: Selectivity index, ratio of IC50 for mouse NIH/3T3 cells to IC50 for human MCF7 cells; format: functional
[16] = tested on: MGC-803; assay: Induction of apoptosis in human MGC803 cells assessed as membrane blebbing at 5 uM after 12 to 48 hrs using acridine orange/ethidium bromide staining by fluorescence microscopic analysis; format: functional, cell-based
[17] = tested on: MGC-803; assay: Induction of apoptosis in human MGC803 cells assessed as chromatin condensation at 5 uM after 12 to 48 hrs using Hoechst 33258 staining by fluorescence microscopic analysis; format: functional, cell-based
[18] = tested on: Bcap37; assay: Cytotoxicity against human Bcap37 cells after 72 hrs by MTT assay; format: functional, cell-based
[19] = tested on: PC-3; assay: Cytotoxicity against human PC3 cells after 72 hrs by MTT assay; format: functional, cell-based
[20] = tested on: MGC-803; assay: Induction of apoptosis in human MGC803 cells assessed as pyknosis at 5 uM after 12 to 48 hrs using acridine orange/ethidium bromide staining by fluorescence microscopic analysis; format: functional, cell-based
[21] = tested on: Bcap37; assay: Ratio of betulin IC50 to compound IC50 for human Bcap37 cells; format: functional
[22] = tested on: MGC-803; assay: Induction of apoptosis in human MGC803 cells assessed as apoptotic cells at 5 uM after 12 to 48 hrs using Hoechst 33258 staining by fluorescence microscopic analysis; format: functional, cell-based
[23] = tested on: Bcap37; assay: Selectivity index, ratio of IC50 for mouse NIH/3T3 cells to IC50 for human Bcap37 cells; format: functional
[24] = tested on: PC-3; assay: Ratio of betulin IC50 to compound IC50 for human PC3 cells; format: functional
[25] = tested on: MGC-803; assay: Selectivity index, ratio of IC50 for mouse NIH/3T3 cells to IC50 for human MGC803 cells; format: functional

C=C(C)[C@@H]1CC[C@]2(COC(=O)CCC(=O)N3CCCCC3)CC[C@]3(C)[C@H](CC[C@@H]4[C@@]5(C)CC[C@H](O)C(C)(C)[C@@H]5CC[C@]43C)[C@@H]12
Activity [1]: tde | Activity [2]: Active | Activity [3]: Dose-dependent effect | pIC50 ([3]; MCF7, 72 h): 5.28 | Activity [4]: Dose-dependent effect | pIC50 ([4]; MGC-803, 72 h): 5.37 | Ratio IC50 [5]: 4 | Ratio IC50 [6]: 4.72 | Activity [7]: Active | Ratio IC50 [8]: 4 | Activity [9]: 31.11% | Activity [10]: Dose-dependent effect | pIC50 ([10]; A-375, 72 h): 5.12 | Ratio IC50 [11]: 7.86 | Activity [12]: Active | Ratio IC50 [13]: 4 | Activity [14]: Non-toxic | Ratio IC50 [15]: 6.8 | Activity [16]: Active | Activity [17]: Active | Activity [18]: Dose-dependent effect | pIC50 ([18]; Bcap37, 72 h): 5.28 | Activity [19]: Dose-dependent effect | pIC50 ([19]; PC-3, 72 h): 5.35 | Activity [20]: Active | Ratio IC50 [21]: 4 | Activity [22]: Active | Ratio IC50 [23]: 6.81 | Ratio IC50 [24]: 4 | Ratio IC50 [25]: 8.23
